The test addresses T1, recombinant human GR (Homo sapiens, UniProt P04150).
T1 construct: purchased Panvera/Invitrogen P2812 (kit P2893)
T1 sequence (P04150 1-777): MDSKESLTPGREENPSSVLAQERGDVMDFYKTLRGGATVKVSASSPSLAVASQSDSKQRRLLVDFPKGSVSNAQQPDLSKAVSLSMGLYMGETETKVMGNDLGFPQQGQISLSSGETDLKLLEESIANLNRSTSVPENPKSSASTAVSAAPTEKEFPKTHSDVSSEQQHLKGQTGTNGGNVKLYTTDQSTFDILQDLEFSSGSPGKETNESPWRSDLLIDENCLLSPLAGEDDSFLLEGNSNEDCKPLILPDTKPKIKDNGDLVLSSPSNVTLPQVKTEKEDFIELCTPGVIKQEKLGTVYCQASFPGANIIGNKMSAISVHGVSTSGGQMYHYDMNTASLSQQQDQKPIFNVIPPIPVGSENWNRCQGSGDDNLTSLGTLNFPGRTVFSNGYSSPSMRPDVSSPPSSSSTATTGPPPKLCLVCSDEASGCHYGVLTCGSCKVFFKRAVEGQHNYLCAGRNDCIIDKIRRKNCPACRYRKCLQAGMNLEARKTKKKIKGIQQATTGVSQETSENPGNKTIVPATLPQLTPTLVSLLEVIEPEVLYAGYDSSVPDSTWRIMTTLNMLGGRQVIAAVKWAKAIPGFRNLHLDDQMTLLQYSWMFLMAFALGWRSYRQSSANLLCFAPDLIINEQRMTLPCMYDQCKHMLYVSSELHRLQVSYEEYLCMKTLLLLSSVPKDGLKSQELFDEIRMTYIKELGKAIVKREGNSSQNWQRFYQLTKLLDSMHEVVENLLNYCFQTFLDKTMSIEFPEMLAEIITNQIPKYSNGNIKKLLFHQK
Kind of test: Human Glucocorticoid Receptor (GR) Assay (fluorescence polarization, Panvera/Invitrogen kit). The test is classed as binding. Particulars: fluorescence polarization; GS Red tracer; 2 hours at room temperature; 100% control 10 μM Dexamethasone; read-out: Inhibition of GR binding, IC50. The essentials: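 Fluorescence polarization competition with recombinant GR and GS Red fluorescent ligand plus stabilizing peptide and DTT in potassium phosphate/sodium molybdate/EDTA buffer with DMSO. Incubated 2 hours at room temperature in the dark; 0% control DMSO, 100% control 10 μM dexamethasone.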
Background: Polarisation of emitted light reports the rotation of a fluorescent probe.
Usually IC50 stands for the point on the concentration scale where inhibition reaches its midpoint. Consider `CCC(=O)O[C@]1(C(=O)SCOC)CC[C@H]2[C@@H]3CCC4=Cc5c(cnn5-c5ccc(F)nc5)C[C@]4(C)[C@H]3[C@@H](O)C[C@@]21C` [Example 98, (1R,3aS,3bS,10aR,10bS,11S,12aS)-7-(6-Fluoropyridin-3-yl)-11-hydroxy-1-{[(methoxymethyl)sulfanyl]carbonyl}-10a,12a-dimethyl-1,2,3,3a,3b,4,5,7,10,10a,10b,11,12,12a-tetradecahydrocyclopenta[5,6]naphtho[1,2-f]indazol-1-yl propanoate], for which the IC50 was found to be 3.1 nM. For `CCC(=O)O[C@]1(C(=O)SCF)CC[C@H]2[C@@H]3CCC4=Cc5c(cnn5-c5ccc(F)nc5)C[C@]4(C)[C@H]3[C@@H](O)C[C@@]21C` [Example 99, (1R,3aS,3bS,10aR,10bS,11S,12aS)-1-{[(Fluoromethyl)sulfanyl]carbonyl}-7-(6-fluoropyridin-3-yl)-11-hydroxy-10a,12a-dimethyl-1,2,3,3a,3b,4,5,7,10,10a,10b,11,12,12a-tetradecahydrocyclopenta[5,6]naphtho[1,2-f]indazol-1-yl propanoate] the value was 2.1 nM. Turning to `C[C@]12Cc3cnn(-c4cccc(C(=O)N5CCOCC5)c4)c3C=C1CC[C@@H]1[C@@H]2[C@@H](O)C[C@@]2(C)[C@H]1CC[C@]2(OC(=O)c1ccco1)C(=O)SCF` [Example 100, (1R,3aS,3bS,10aR,10bS,11S,12aS)-1-{[(Fluoromethyl)thio]carbonyl}-11-hydroxy-10a,12a-dimethyl-7-[3-(morpholin-4-ylcarbonyl)phenyl]-1,2,3,3a,3b,4,5,7,10,10a,10b,11,12,12a-tetradecahydrocyclopenta[5,6]naphtho[1,2-f]indazol-1-yl furan-2-carboxylate], the IC50 was found to be 2.7 nM. For the compound `C[C@]12Cc3cnn(-c4ccc(F)cc4F)c3C=C1CC[C@@H]1[C@@H]2[C@@H](O)C[C@@]2(C)[C@H]1CC[C@]2(OC(=O)c1ccco1)C(=O)SCC#N` [Example 101, (1R,3aS,3bS,10aR,10bS,11S,12aS)-1-{[(Cyanomethyl)thio]carbonyl}-7-(2,4-difluorophenyl)-11-hydroxy-10a,12a-dimethyl-1,2,3,3a,3b,4,5,7,10,10a,10b,11,12,12a-tetradecahydrocyclopenta[5,6]naphtho[1,2-f]indazol-1-yl furan-2-carboxylate], the IC50 worked out at 29 nM. For the compound `C[C@]12Cc3cnn(-c4cc(F)cc(F)c4)c3C=C1CC[C@@H]1[C@@H]2[C@@H](O)C[C@@]2(C)[C@H]1CC[C@]2(OC(=O)c1ccco1)C(=O)SCC#N` [Example 102, (1R,3aS,3bS,10aR,10bS,11S,12aS)-1-{[(Cyanomethyl)thio]carbonyl}-7-(3,5-difluorophenyl)-11-hydroxy-10a,12a-dimethyl-1,2,3,3a,3b,4,5,7,10,10a,10b,11,12,12a-tetradecahydrocyclopenta[5,6]naphtho[1,2-f]indazol-1-yl furan-2-carboxylate], the IC50 is 8.2 nM. `C[C@]12Cc3cnn(-c4ccc(F)c(F)c4)c3C=C1CC[C@@H]1[C@@H]2[C@@H](O)C[C@@]2(C)[C@H]1CC[C@]2(OC(=O)c1ccco1)C(=O)SCC#N` [Example 103, (1R,3aS,3bS,10aR,10bS,11S,12aS)-1-{[(Cyanomethyl)thio]carbonyl}-7-(3,4-difluorophenyl)-11-hydroxy-10a,12a-dimethyl-1,2,3,3a,3b,4,5,7,10,10a,10b,11,12,12a-tetradecahydrocyclopenta[5,6]naphtho[1,2-f]indazol-1-yl furan-2-carboxylate]: the 50% inhibitory concentration (IC50) was 6.4 nM.

Consider `CCOC(=O)[C@@]1(O)CC[C@H]2[C@@H]3CCC4=Cc5c(cnn5-c5ccc(F)cc5)C[C@]4(C)[C@H]3[C@@H](O)C[C@@]21C` [Example 104, Ethyl (1R,3aS,3bS,10aR,10bS,11S,12aS)-7-(4-fluorophenyl)-1,11-dihydroxy-10a,12a-dimethyl-1,2,3,3a,3b,4,5,7,10,10a,10b,11,12,12a-tetradecahydrocyclopenta[5,6]naphtho[1,2-f]indazole-1-carboxylate], for which the concentration for half-maximal inhibition (IC50) came out at 4.2 nM. With `C[C@]12Cc3cnn(-c4ccccn4)c3C=C1CC[C@@H]1[C@@H]2[C@@H](O)C[C@@]2(C)[C@H]1CC[C@]2(OC(=O)c1ccco1)C(=O)OCC#N` [Example 105, Cyanomethyl(1R,3aS,3bS,10aR,10bS,11S,12aS)-1-[(furan-2-ylcarbonyl)oxy]-11-hydroxy-10a,12a-dimethyl-7-pyridin-2-yl-1,2,3,3a,3b,4,5,7,10,10a,10b,11,12,12a-tetradecahydrocyclopenta[5,6]naphtho[1,2-f]indazole-1-carboxylate] the figure was 6.1 nM; with `C[C@]12Cc3cnn(-c4ccc(S(C)(=O)=O)cc4)c3C=C1CC[C@@H]1[C@@H]2[C@@H](O)C[C@@]2(C)[C@H]1CC[C@]2(OC(=O)c1ccco1)C(=O)SCC#N` [Example 106, (1R,3aS,3bS,10aR,10bS,11S,12aS)-1-{[(Cyanomethyl)sulfanyl]carbonyl}-11-hydroxy-10a,12a-dimethyl-7-[4-(methylsulfonyl)phenyl]-1,2,3,3a,3b,4,5,7,10,10a,10b,11,12,12a-tetradecahydrocyclopenta[5,6]naphtho[1,2-f]indazol-1-yl furan-2-carboxylate], 160 nM.

Take `CN(C)C(=O)SC(=O)[C@@]1(OC(=O)c2ccco2)CC[C@H]2[C@@H]3CCC4=Cc5c(cnn5-c5cc(F)cc(F)c5)C[C@]4(C)[C@H]3[C@@H](O)C[C@@]21C` [Example 107, (1R,3aS,3bS,10aR,10bS,11S,12aS)-7-(3,5-Difluorophenyl)-1-{[(dimethylcarbamoyl)sulfanyl]carbonyl}-11-hydroxy-10a,12a-dimethyl-1,2,3,3a,3b,4,5,7,10,10a,10b,11,12,12a-tetradecahydrocyclopenta[5,6]naphtho[1,2-f]indazol-1-yl furan-2-carboxylate]: the IC50 was found to be 59 nM. As to `COC(=O)c1cccc(-n2ncc3c2C=C2CC[C@@H]4[C@H]([C@@H](O)C[C@@]5(C)[C@H]4CC[C@]5(OC(=O)c4ccco4)C(=O)SCF)[C@@]2(C)C3)c1` [Example 108, (1R,3aS,3bS,10aR,10bS,11S,12aS)-1-{[(Fluoromethyl)sulfanyl]carbonyl}-11-hydroxy-7-[3-(methoxycarbonyl)phenyl]-10a,12a-dimethyl-1,2,3,3a,3b,4,5,7,10,10a,10b,11,12,12a-tetradecahydrocyclopenta[5,6]naphtho[1,2-f]indazol-1-yl furan-2-carboxylate], the IC50 was found to be 6.6 nM. With `CC(=O)O[C@]1(C(=O)SCC#N)CC[C@H]2[C@@H]3CCC4=Cc5c(cnn5-c5ccc(F)cc5)C[C@]4(C)[C@H]3[C@@H](O)C[C@@]21C` [Example 109, (1R,3aS,3bS,10aR,10bS,11S,12aS)-1-{[(Cyanomethyl)sulfanyl]carbonyl}-7-(4-fluorophenyl)-11-hydroxy-10a,12a-dimethyl-1,2,3,3a,3b,4,5,7,10,10a,10b,11,12,12a-tetradecahydrocyclopenta[5,6]naphtho[1,2-f]indazol-1-yl acetate] the figure was 4.1 nM; with `CC(=O)O[C@]1(C(=O)SCF)CC[C@H]2[C@@H]3CCC4=Cc5c(cnn5-c5ccc(F)cc5)C[C@]4(C)[C@H]3[C@@H](O)C[C@@]21C` [Example 110, (1R,3aS,3bS,10aR,10bS,11S,12aS)-1-{[(Fluoromethyl)sulfanyl]carbonyl}-7-(4-fluorophenyl)-11-hydroxy-10a,12a-dimethyl-1,2,3,3a,3b,4,5,7,10,10a,10b,11,12,12a-tetradecahydrocyclopenta[5,6]naphtho[1,2-f]indazol-1-yl acetate], 6.7 nM.

In the case of `CC(C)C(=O)O[C@]1(C(=O)SCC#N)CC[C@H]2[C@@H]3CCC4=Cc5c(cnn5-c5ccc(F)cc5)C[C@]4(C)[C@H]3[C@@H](O)C[C@@]21C` [Example 111, (1R,3aS,3bS,10aR,10bS,11S,12aS)-1-{[(Cyanomethyl)sulfanyl]carbonyl}-7-(4-fluorophenyl)-11-hydroxy-10a,12a-dimethyl-1,2,3,3a,3b,4,5,7,10,10a,10b,11,12,12a-tetradecahydrocyclopenta[5,6]naphtho[1,2-f]indazol-1-yl 2-methylpropanoate], the concentration for half-maximal inhibition (IC50) turned out to be 6.3 nM. With `CC(C)CC(=O)O[C@]1(C(=O)SCC#N)CC[C@H]2[C@@H]3CCC4=Cc5c(cnn5-c5ccc(F)cc5)C[C@]4(C)[C@H]3[C@@H](O)C[C@@]21C` [Example 112, (1R,3aS,3bS,10aR,10bS,11S,12aS)-1-{[(Cyanomethyl)sulfanyl]carbonyl}-7-(4-fluorophenyl)-11-hydroxy-10a,12a-dimethyl-1,2,3,3a,3b,4,5,7,10,10a,10b,11,12,12a-tetradecahydrocyclopenta[5,6]naphtho[1,2-f]indazol-1-yl 3-methylbutanoate] the figure was 18 nM.

The values are drawn from patent US8163724B2, “Glucocorticosteroids, processes for their preparation, pharmaceutical compositions containing them and their use in therapy” (AstraZeneca AB, priority 2007, dated 2012).
